As a reminder, the IC50 is the concentration that inhibits the measured activity by half. A low value points to higher potency.

One assay has as its target BRM (Homo sapiens, UniProt P51531). Briefly: ATPase catalytic activity assay (ADP-Glo), BRM. To be noted: 30 nM BRM, 400 μM ATP; for IC50: BRM ATPase: IC50 (uM).
The next assay addresses BRG-1 (Homo sapiens, UniProt P51532). Briefly: ATPase catalytic activity assay (ADP-Glo), BRG-1. The following applies: for Emax: 1 h, read-out: BRG1 Max % Inhibition, ADP-Glo, 30 nM BRG-1, 400 μM ATP. (In ADP-Glo the light output rises with the ADP produced.)

Sequence of BRM (P51531 whole entry): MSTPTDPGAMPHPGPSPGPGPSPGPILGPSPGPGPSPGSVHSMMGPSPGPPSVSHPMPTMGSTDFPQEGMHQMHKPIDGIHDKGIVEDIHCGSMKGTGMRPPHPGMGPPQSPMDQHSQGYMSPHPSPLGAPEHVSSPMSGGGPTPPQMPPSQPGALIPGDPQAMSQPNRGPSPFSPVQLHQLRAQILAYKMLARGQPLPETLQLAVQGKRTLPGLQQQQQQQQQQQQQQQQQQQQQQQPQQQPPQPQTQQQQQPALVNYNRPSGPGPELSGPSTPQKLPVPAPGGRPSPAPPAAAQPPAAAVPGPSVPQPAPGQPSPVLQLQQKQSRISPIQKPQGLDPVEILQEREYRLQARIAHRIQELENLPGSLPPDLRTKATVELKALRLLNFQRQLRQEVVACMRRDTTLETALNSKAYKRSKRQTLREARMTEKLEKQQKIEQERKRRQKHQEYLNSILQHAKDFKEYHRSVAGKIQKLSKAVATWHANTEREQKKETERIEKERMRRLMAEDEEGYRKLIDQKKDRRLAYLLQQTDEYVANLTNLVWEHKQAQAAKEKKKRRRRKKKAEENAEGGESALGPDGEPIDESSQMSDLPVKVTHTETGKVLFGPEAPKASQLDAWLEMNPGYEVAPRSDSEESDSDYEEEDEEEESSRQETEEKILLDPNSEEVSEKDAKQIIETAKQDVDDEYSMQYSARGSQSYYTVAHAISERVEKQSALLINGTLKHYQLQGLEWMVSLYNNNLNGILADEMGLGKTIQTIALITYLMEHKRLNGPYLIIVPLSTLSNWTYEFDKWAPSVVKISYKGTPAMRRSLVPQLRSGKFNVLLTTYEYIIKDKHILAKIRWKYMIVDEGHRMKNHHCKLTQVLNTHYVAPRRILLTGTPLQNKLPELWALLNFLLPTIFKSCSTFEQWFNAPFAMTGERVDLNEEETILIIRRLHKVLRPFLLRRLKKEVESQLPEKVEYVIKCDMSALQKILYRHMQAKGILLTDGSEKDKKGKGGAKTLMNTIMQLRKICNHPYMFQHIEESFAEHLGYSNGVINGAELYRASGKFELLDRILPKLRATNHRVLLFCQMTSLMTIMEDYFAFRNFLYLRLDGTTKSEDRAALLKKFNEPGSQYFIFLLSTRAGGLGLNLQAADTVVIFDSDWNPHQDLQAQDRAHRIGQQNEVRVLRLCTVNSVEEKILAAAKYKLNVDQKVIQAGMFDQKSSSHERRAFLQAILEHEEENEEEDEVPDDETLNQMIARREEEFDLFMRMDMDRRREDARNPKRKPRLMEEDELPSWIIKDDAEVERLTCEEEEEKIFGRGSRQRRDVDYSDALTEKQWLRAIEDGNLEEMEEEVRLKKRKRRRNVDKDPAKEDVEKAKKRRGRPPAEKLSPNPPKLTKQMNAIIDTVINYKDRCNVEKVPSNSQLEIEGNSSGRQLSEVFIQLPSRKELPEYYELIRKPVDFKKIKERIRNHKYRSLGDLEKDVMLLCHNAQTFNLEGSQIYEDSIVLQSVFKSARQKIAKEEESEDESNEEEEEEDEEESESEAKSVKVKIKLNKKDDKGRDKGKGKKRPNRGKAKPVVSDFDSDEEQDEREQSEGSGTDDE
Sequence of BRG-1 (P51532 whole entry): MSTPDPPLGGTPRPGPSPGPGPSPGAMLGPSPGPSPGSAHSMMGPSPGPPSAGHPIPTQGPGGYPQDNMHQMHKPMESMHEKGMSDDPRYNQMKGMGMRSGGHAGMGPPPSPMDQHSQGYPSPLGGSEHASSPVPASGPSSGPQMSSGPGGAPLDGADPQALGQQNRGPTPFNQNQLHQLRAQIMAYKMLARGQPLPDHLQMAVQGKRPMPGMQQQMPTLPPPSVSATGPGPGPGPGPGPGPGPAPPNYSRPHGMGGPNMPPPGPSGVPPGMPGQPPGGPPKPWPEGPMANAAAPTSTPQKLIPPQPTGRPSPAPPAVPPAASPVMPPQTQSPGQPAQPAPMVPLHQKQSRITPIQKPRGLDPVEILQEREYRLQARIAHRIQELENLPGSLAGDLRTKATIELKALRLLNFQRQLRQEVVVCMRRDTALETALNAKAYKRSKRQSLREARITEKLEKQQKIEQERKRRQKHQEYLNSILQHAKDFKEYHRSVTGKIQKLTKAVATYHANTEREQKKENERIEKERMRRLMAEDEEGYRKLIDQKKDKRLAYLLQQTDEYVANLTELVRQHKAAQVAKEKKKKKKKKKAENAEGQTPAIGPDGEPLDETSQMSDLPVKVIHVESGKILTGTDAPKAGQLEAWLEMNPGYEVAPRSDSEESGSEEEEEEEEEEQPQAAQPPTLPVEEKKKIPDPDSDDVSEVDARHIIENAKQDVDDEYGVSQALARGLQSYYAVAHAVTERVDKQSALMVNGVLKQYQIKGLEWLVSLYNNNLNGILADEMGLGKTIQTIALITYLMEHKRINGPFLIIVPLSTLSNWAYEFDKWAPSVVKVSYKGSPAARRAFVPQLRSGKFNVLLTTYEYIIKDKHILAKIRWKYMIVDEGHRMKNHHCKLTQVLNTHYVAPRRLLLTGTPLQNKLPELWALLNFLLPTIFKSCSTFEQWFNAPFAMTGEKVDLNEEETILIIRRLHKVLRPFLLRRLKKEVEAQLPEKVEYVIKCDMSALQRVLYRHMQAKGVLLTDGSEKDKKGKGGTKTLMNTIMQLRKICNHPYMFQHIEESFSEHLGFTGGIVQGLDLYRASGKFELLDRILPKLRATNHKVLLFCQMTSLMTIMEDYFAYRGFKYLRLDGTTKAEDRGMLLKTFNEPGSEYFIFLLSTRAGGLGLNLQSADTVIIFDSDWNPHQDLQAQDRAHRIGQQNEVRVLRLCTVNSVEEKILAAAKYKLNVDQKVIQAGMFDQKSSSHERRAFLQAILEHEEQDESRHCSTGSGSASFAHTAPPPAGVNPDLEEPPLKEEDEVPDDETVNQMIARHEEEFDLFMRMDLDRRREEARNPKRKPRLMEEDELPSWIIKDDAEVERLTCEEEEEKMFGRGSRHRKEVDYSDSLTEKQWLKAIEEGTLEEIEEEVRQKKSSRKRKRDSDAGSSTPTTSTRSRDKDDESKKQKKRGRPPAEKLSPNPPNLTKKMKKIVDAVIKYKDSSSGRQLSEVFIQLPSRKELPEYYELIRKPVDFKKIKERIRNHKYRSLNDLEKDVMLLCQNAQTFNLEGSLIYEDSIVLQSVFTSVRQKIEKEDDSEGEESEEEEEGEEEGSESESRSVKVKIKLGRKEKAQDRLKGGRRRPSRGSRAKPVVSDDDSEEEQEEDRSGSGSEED

In the case of `C[C@@]1(F)COCc2ccc(C(=O)NCc3cc4nc(-c5cccc(C6(O)COC6)n5)ccc4cn3)cc21` [Compound 160], on BRM, the “BRM Max % Inhibition” value came out at 93% and the 50% inhibitory concentration (IC50) fell in the range of 0.1 to 0.5 µM. Also, at BRG-1, the half-maximal inhibitory concentration (IC50) was 500 to 1000 nM and the Emax is 62%.
The matching figures for `COc1nn(C)cc1-c1cnc2cnc(CNC(=O)c3ccc4c(c3)[C@](C)(F)COC4)cc2n1` [Compound 161]: 94%, 0.1 to 0.5 µM, 500 to 1000 nM and 53%.
The matching figures for `Cn1nc(-c2ccc3cnc(CNC(=O)c4ccc5c(c4)[C@](C)(C#N)COC5)cc3n2)cc1C(F)F` [Compound 162]: 91%, 0.1 to 0.5 µM, 500 to 1000 nM and 59%.
The matching figures for `COC(C)(C)C#Cc1cccc(-c2ccc3cnc(CNC(=O)c4ccc5c(c4)[C@](C)(C#N)COC5)cc3n2)n1` [Compound 163]: 98%, less than 0.1 µM, 100 to 500 nM and 87%.
For `C[C@@]1(C#N)COCc2ccc(C(=O)NCc3cc4nc(-c5cc6ccccn6n5)ccc4cn3)cc21` [Compound 164], at BRM, the “BRM Max % Inhibition” value is 92% and the concentration for half-maximal inhibition (IC50) was in the range of 0.1 to 0.5 µM. In addition, on BRG-1, the IC50 was in the range of 500 to 1000 nM and the Emax is 68%.
The matching figures for `C[C@@]1(C#N)COCc2ccc(C(=O)NCc3cc4nc(-c5ccc6ccc(=O)n(C7CC7)c6n5)ccc4cn3)cc21` [Compound 165]: 97%, less than 0.1 µM, 100 to 500 nM and 80%.
The matching figures for `C[C@@]1(C#N)COCc2ccc(C(=O)NCc3cc4nn(-c5cccc(N6CCC6)n5)cc4cn3)cc21` [Compound 166]: 91%, 0.1 to 0.5 µM, more than 1000 nM and 40%.
As to `C[C@@]1(C#N)COCc2ccc(C(=O)NCc3ncc4ccc(-c5ccccc5)nc4c3F)cc21` [Compound 167], at BRM, the “BRM Max % Inhibition” value worked out at 93% and the half-maximal inhibitory concentration (IC50) was 0.1 to 0.5 µM. For the same molecule, on BRG-1, the half-inhibitory concentration (IC50) is 500 to 1000 nM and the Emax came out at 69%.
The matching figures for `C[C@@]1(F)COCc2ccc(C(=O)NCc3cc4nc(-c5cccc(C6(CO)CC6)n5)ccc4cn3)cc21` [Compound 168]: 99%, less than 0.1 µM, 100 to 500 nM and 93%.
The matching figures for `C[C@@]1(F)COCc2ccc(C(=O)NCc3cc4nc(-c5cccc(C6(O)CC(F)(F)C6)n5)ccc4cn3)cc21` [Compound 169]: 98%, less than 0.1 µM, 100 to 500 nM and 91%.
In the case of `CC(C)(O)C#Cc1cccc(-c2ccc3cnc(CNC(=O)c4ccc5c(c4)[C@](C)(C#N)COC5)cc3n2)n1` [Compound 170], on BRM, the “BRM Max % Inhibition” value was found to be 96% and the IC50 is 0.1 to 0.5 µM. Moreover, on BRG-1, the 50% inhibitory concentration (IC50) was 500 to 1000 nM and the Emax stood at 80%.
The matching figures for `Cn1ccc2c(-c3ccc4cnc(CNC(=O)c5ccc6c(c5)[C@](C)(C#N)COC6)cc4n3)cc(F)cc21` [Compound 171]: 98%, less than 0.1 µM, 100 to 500 nM and 92%.
The matching figures for `Cc1cc2c(-c3ccc4cnc(CNC(=O)c5ccc6c(c5)[C@](C)(C#N)COC6)cc4n3)cccc2n1C` [Compound 172]: 99%, less than 0.1 µM, less than 100 nM and 97%.
The matching figures for `C[C@@]1(C#N)COCc2ccc(C(=O)NCc3cc4nc(-c5cccc6c5ccn6C5CC5)ccc4cn3)cc21` [Compound 173]: 98%, less than 0.1 µM, 100 to 500 nM and 94%.

The values above are taken from patent publication US12441726B2, “Compounds and uses thereof” (Foghorn Therapeutics Inc., priority 2020, dated 2025).
